Test results from PubChem BioAssay AID1963967 (Molecular Pharmacology Branch, DTP, NCI, 2024).

Test system: 855422-203-R-J1-PDC spheroids with HUVEC/MSC, viability
Assay: Anticancer human tumor 855422-203-R-J1-PDC patient-derived bladder carcinoma cell line growth inhibition [PI3K]
Conditions: for viability, T/C: stronger effect = lower value; active means viability on the fitted dose curve at most 10% of control; inactive means the rest
Outline: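 High-throughput combination screen: PI3K inhibitors crossed with targeted small molecules on complex spheroids of tumor cells, HUVEC and MSCs at 37 degrees C, 5% CO2. Top concentration was at or near clinical Cmax (otherwise 10 microM), with half-log decrements.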

[1] = curve of first compound, second compound 0.0316 µM
[2] = curve of first compound, second compound 0.1 µM
[3] = curve of first compound, second compound 0.316 µM
[4] = curve of first compound, second compound 1 µM
[5] = curve of first compound, second compound 3.16 µM
[6] = curve of first compound, second compound 10 µM
[7] = second compound 0.0316 µM, first compound 0.0316 µM
[8] = second compound 0.0316 µM, first compound 0.1 µM
[9] = second compound 0.0316 µM, first compound 0.316 µM
[10] = second compound 0.0316 µM, first compound 1 µM
[11] = second compound 0.0316 µM, first compound 3.16 µM
[12] = second compound 0.0316 µM, first compound 10 µM
[13] = second compound 0.1 µM, first compound 0.0316 µM
[14] = second compound 0.1 µM, first compound 0.1 µM
[15] = second compound 0.1 µM, first compound 0.316 µM
[16] = second compound 0.1 µM, first compound 1 µM
[17] = second compound 0.1 µM, first compound 3.16 µM
[18] = second compound 0.1 µM, first compound 10 µM
[19] = second compound 0.316 µM, first compound 0.0316 µM
[20] = second compound 0.316 µM, first compound 0.1 µM
[21] = second compound 0.316 µM, first compound 0.316 µM
[22] = second compound 0.316 µM, first compound 1 µM
[23] = second compound 0.316 µM, first compound 3.16 µM
[24] = second compound 0.316 µM, first compound 10 µM
[25] = second compound 1 µM, first compound 0.0316 µM
[26] = second compound 1 µM, first compound 0.1 µM
[27] = second compound 1 µM, first compound 0.316 µM
[28] = second compound 1 µM, first compound 1 µM
[29] = second compound 1 µM, first compound 3.16 µM
[30] = second compound 1 µM, first compound 10 µM
[31] = second compound 3.16 µM, first compound 0.0316 µM
[32] = second compound 3.16 µM, first compound 0.1 µM
[33] = second compound 10 µM, first compound 0.0316 µM
[34] = second compound 10 µM, first compound 0.1 µM
[35] = curve of first compound, second compound 0.00316 µM
[36] = curve of first compound, second compound 0.01 µM
[37] = second compound 0.00316 µM, first compound 0.0316 µM
[38] = second compound 0.00316 µM, first compound 0.1 µM
[39] = second compound 0.01 µM, first compound 0.0316 µM
[40] = second compound 0.01 µM, first compound 0.1 µM
[41] = second compound 0.0316 µM, first compound 0.000316 µM
[42] = second compound 0.0316 µM, first compound 0.001 µM
[43] = second compound 0.0316 µM, first compound 0.00316 µM
[44] = second compound 0.0316 µM, first compound 0.01 µM
[45] = second compound 0.1 µM, first compound 0.000316 µM
[46] = second compound 0.1 µM, first compound 0.001 µM
[47] = second compound 0.1 µM, first compound 0.00316 µM
[48] = second compound 0.1 µM, first compound 0.01 µM
[49] = second compound 0.316 µM, first compound 0.000316 µM
[50] = second compound 0.316 µM, first compound 0.001 µM
[51] = second compound 0.316 µM, first compound 0.00316 µM
[52] = second compound 0.316 µM, first compound 0.01 µM
[53] = second compound 1 µM, first compound 0.000316 µM
[54] = second compound 1 µM, first compound 0.001 µM
[55] = second compound 1 µM, first compound 0.00316 µM
[56] = second compound 1 µM, first compound 0.01 µM
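Further: agents incubated with spheroids for one week before read-out.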
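Wherever viability, T/C is given: 100% = DMSO vehicle-treated control wells.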

C#Cc1c(F)ccc2cc(O)cc(-c3ncc4c(N5CC6CCC(C5)N6)nc(OCC56CCCN5CC(F)C6)nc4c3F)c12 (stereo not given) + Cc1nc(NC(=O)N2CCCC2C(N)=O)sc1-c1ccnc(C(C)(C)C(F)(F)F)c1
> 10000 nM: IC50 [1] | IC50 [2] | IC50 [3] | IC50 [4]
< 31.6 nM: IC50 [5] | IC50 [6]
inactive: viability, T/C [7] 106% | viability, T/C [8] 92.8% | viability, T/C [9] 108% | viability, T/C [10] 95% | viability, T/C [11] 115% | viability, T/C [12] 115% | viability, T/C [13] 100% | viability, T/C [14] 88.6% | viability, T/C [15] 103% | viability, T/C [16] 93.9% | viability, T/C [17] 115% | viability, T/C [18] 113% | viability, T/C [19] 91.5% | viability, T/C [20] 92.9% | viability, T/C [21] 97.6% | viability, T/C [22] 94.4% | viability, T/C [23] 97.4% | viability, T/C [24] 102% | viability, T/C [25] 70.5% | viability, T/C [26] 78.3% | viability, T/C [27] 70.7% | viability, T/C [28] 73.2% | viability, T/C [29] 75% | viability, T/C [30] 63.3% | viability, T/C [31] 41.5% | viability, T/C [32] 48.6% | viability, T/C (second compound 3.16 µM, first compound 0.316 µM) 47.1% | viability, T/C (second compound 3.16 µM, first compound 1 µM) 42.9% | viability, T/C (second compound 3.16 µM, first compound 3.16 µM) 40.6% | viability, T/C (second compound 3.16 µM, first compound 10 µM) 31.8% | viability, T/C [33] 24.6% | viability, T/C [34] 21.5% | viability, T/C (second compound 10 µM, first compound 0.316 µM) 22.7% | viability, T/C (second compound 10 µM, first compound 1 µM) 22.3% | viability, T/C (second compound 10 µM, first compound 3.16 µM) 19% | viability, T/C (second compound 10 µM, first compound 10 µM) 7.62%

CC(=O)c1c(C)c2cnc(Nc3ccc(N4CCNCC4)cn3)nc2n(C2CCCC2)c1=O + CC(Nc1ccc2c(c1)OCCn1cc(N3C(=O)OCC3C(F)F)nc1-2)C(N)=O
> 100 nM: IC50 [35] | IC50 [36] | IC50 [1]
inactive: viability, T/C (second compound 0.00316 µM, first compound 0.000316 µM) 110% | viability, T/C (second compound 0.00316 µM, first compound 0.001 µM) 88.9% | viability, T/C (second compound 0.00316 µM, first compound 0.00316 µM) 109% | viability, T/C (second compound 0.00316 µM, first compound 0.01 µM) 84.1% | viability, T/C [37] 97.6% | viability, T/C [38] 74.2% | viability, T/C (second compound 0.01 µM, first compound 0.000316 µM) 99% | viability, T/C (second compound 0.01 µM, first compound 0.001 µM) 87% | viability, T/C (second compound 0.01 µM, first compound 0.00316 µM) 98.3% | viability, T/C (second compound 0.01 µM, first compound 0.01 µM) 86% | viability, T/C [39] 98% | viability, T/C [40] 75.8% | viability, T/C [41] 84.1% | viability, T/C [42] 84% | viability, T/C [43] 86.3% | viability, T/C [44] 85.1% | viability, T/C [7] 83.5% | viability, T/C [8] 60.8% | viability, T/C [45] 72.1% | viability, T/C [46] 78.4% | viability, T/C [47] 62.1% | viability, T/C [48] 73.7% | viability, T/C [13] 72% | viability, T/C [14] 43.2% | viability, T/C [49] 54.2% | viability, T/C [50] 51.3% | viability, T/C [51] 57.4% | viability, T/C [52] 47.9% | viability, T/C [19] 44.4% | viability, T/C [20] 29.9% | viability, T/C [53] 37% | viability, T/C [54] 36% | viability, T/C [55] 31.9% | viability, T/C [56] 30.6% | viability, T/C [25] 31.2% | viability, T/C [26] 15.4%
75.5 nM: IC50 [2]
10.6 nM: IC50 [3]
< 0.316 nM: IC50 [4]

Cn1nccc1Nc1nccc(-c2ccn(C(CO)c3ccc(Cl)c(F)c3)c(=O)c2)n1 (stereo not given)
8.75 µM [middle of 4 runs]: IC50 (curve of compound)
inactive: viability, T/C (compound 0.0316 µM) 112% [middle of 4 runs] | viability, T/C (compound 0.1 µM) 99.8% [middle of 4 runs] | viability, T/C (compound 0.316 µM) 108% [middle of 4 runs] | viability, T/C (compound 1 µM) 90.7% [middle of 4 runs] | viability, T/C (compound 3.16 µM) 93.1% [middle of 4 runs] | viability, T/C (compound 10 µM) 44% [middle of 4 runs]

CC(C)n1nc(-c2ccc3oc(N)nc3c2)c2c(N)ncnc21 + CC(Nc1ncnc2nc[nH]c12)c1cc2cccc(Cl)c2c(=O)n1-c1ccccc1
inactive: viability, T/C [41] 111% | viability, T/C [42] 97.1% | viability, T/C [43] 121% | viability, T/C [44] 98.6% | viability, T/C [7] 74.3% | viability, T/C [8] 15.9% | viability, T/C [45] 110% | viability, T/C [46] 108% | viability, T/C [47] 107% | viability, T/C [48] 98.1% | viability, T/C [13] 74% | viability, T/C [14] 14.4% | viability, T/C [49] 100% | viability, T/C [50] 106% | viability, T/C [51] 102% | viability, T/C [52] 99.3% | viability, T/C [19] 69.1% | viability, T/C [20] 12.1% | viability, T/C [53] 110% | viability, T/C [54] 91.2% | viability, T/C [55] 100% | viability, T/C [56] 96.9% | viability, T/C [25] 57.6% | viability, T/C [26] 14.1% | viability, T/C (second compound 3.16 µM, first compound 0.000316 µM) 95% | viability, T/C (second compound 3.16 µM, first compound 0.001 µM) 91% | viability, T/C (second compound 3.16 µM, first compound 0.00316 µM) 93.9% | viability, T/C (second compound 3.16 µM, first compound 0.01 µM) 78.7% | viability, T/C [31] 52.2% | viability, T/C [32] 12.9% | viability, T/C (second compound 10 µM, first compound 0.000316 µM) 81.5% | viability, T/C (second compound 10 µM, first compound 0.001 µM) 81% | viability, T/C (second compound 10 µM, first compound 0.00316 µM) 80.3% | viability, T/C (second compound 10 µM, first compound 0.01 µM) 59% | viability, T/C [33] 38.2% | viability, T/C [34] 13.6%
50.8 nM: IC50 [1]
33.4 nM: IC50 [5]
38.7 nM: IC50 [4]
17.3 nM: IC50 [6]
50.2 nM: IC50 [2]
46.5 nM: IC50 [3]

CCCS(=O)(=O)Nc1ccc(F)c(C(=O)c2c[nH]c3ncc(-c4ccc(Cl)cc4)cc23)c1F + CC(Nc1ccc2c(c1)OCCn1cc(N3C(=O)OCC3C(F)F)nc1-2)C(N)=O
3580 nM: IC50 [2]
inactive: viability, T/C [37] 110% | viability, T/C [38] 89.8% | viability, T/C (second compound 0.00316 µM, first compound 0.316 µM) 104% | viability, T/C (second compound 0.00316 µM, first compound 1 µM) 76.1% | viability, T/C (second compound 0.00316 µM, first compound 3.16 µM) 52.6% | viability, T/C [39] 99.2% | viability, T/C [40] 85.2% | viability, T/C (second compound 0.01 µM, first compound 0.316 µM) 91.8% | viability, T/C (second compound 0.01 µM, first compound 1 µM) 78.5% | viability, T/C (second compound 0.01 µM, first compound 3.16 µM) 75.8% | viability, T/C [7] 92% | viability, T/C [8] 79.9% | viability, T/C [9] 98.7% | viability, T/C [10] 87.8% | viability, T/C [11] 72.5% | viability, T/C [13] 77.2% | viability, T/C [14] 82% | viability, T/C [15] 74.4% | viability, T/C [16] 72% | viability, T/C [17] 56.7% | viability, T/C [19] 58.9% | viability, T/C [20] 53.3% | viability, T/C [21] 54.9% | viability, T/C [22] 48.9% | viability, T/C [23] 37.1% | viability, T/C [25] 36.7% | viability, T/C [26] 36.5% | viability, T/C [27] 34.2% | viability, T/C [28] 34.8% | viability, T/C [29] 24.1%
4530 nM: IC50 [1]
981 nM: IC50 [3]
3280 nM: IC50 [35]
active: viability, T/C (second compound 0.00316 µM, first compound 10 µM) 0.17% | viability, T/C (second compound 0.01 µM, first compound 10 µM) 0.24% | viability, T/C [12] 0.18% | viability, T/C [18] 0.28% | viability, T/C [24] 0.2% | viability, T/C [30] 0.31%
4550 nM: IC50 [36]
< 31.6 nM: IC50 [4]
